Assay results from US12023317B2, “Composition for ameliorating psoriasis comprising cimicifugolide a as active ingredient” (KOREA INSTITUTE OF SCIENCE AND TECHNOLOGY, priority 2021, dated 2024).

Tested on: psoriasis
Assay: psoriasis-induced group: skin moisture, damaged area, skin morphology, inflammation
Format: in vivo
Conditions: when cimicifugolide A is administered

Compound: CC(C)=CC1OC(=O)/C(=C\CO)C1O (stereo not shown) [cimicifugolide A, (Z)-4-Hydroxy-3-(2-hydroxyethylidene)-5-(2-methylprop-1-en-1-yl)dihydrofuran-2(3H)-one]
- inflammation expression: inhibition
- moisture content: increased
- moisture loss: decreased
- skin morphological changes: inhibition
